Reference: patent US20090274738A1, “IMPLANTABLE DEVICES FOR PROMOTING REENDOTHELIALIZATION AND METHODS OF USE THEREOF” (priority 2008, published 2009)

How the values were obtained:
[1] = system: endothelial progenitor cell; conditions: cited from earlier work
[2] = Tissue uptake of estradiol administered locally with a catheter; type: in vivo; conditions: 10 mg administered with a catheter over a few seconds
Method: Stents and hormone used for the procedures The polymer poly (ester-amide) (PEA)/estradiol (E2) stents used in Examples presented herein were prepared by MicroPort (MicroPort Medical Co, Ltd. Shanghai). Stainless steel bare metal stents were of 18 mm and 23 mm length and were spray coated by MicroPort with 300 μg or 500 μg of E2 matrixed with MediVas™ poly (ester-amide) (MVPEA.I.(Ac)) tempo polymer. […] The sizes of Cypher™ stents were; 3×18 mm, 3.5×18 mm, 3×23 mm, 3.5×23 mm (Johnson & Johnson). The sizes of Taxus™ stents were 2.25×12 mm, 3×16 mm, 3.5×16 mm, 3×24 mm, 3.5×24 mm (Boston Scientific). The estradiol (USP) used to load the polymer poly (ester-amide) (PEA)/E2 stents was bought from Xenex labs (Coquitlam, Canada) and send to Microport. The estradiol used for local delivery by catheter in the objective 2 was the water soluble form coupled with hydroxypropyl-heta-cyclodextrin (HPCD).

[3] = system: foetal bovine aortic endothelial cell; conditions: cited from earlier work
[4] = type: in vivo
Method: Tissue samples and stents were analyzed for each animal for estrogen content. The right coronary artery (RCA) and the left anterior descending artery (LAD) were opened longitudinally and cut into 6 pieces; 2 in the proximal region, 2 in the medial region and 2 in the distal region of the stented segment. One piece in each region was analyzed and the other one was kept as a backup. To evaluate the migration of E2 through the arterial wall, the left circumflex artery (LCX) was dissected to separate the adventitia from the rest of the artery and the two fractions were analyzed individually. […] After centrifugation, sera were collected for extraction and analysis by GC/MS.
Hormones Deuterium-labeled estradiol 2,4,16,16,17-D5 (17β-D5) (CDN Isotopes, Pointe Claire, Canada) and micronized estradiol (USP, Xenex labs, Coquitlam, Canada) were used respectively as internal and external controls.
Extraction of steroids—17β-estradiol extraction in pig serum. Blood samples of 8.5 mL were collected at specific time from each animal in the coronary sinus using an 8 French guiding catheter at baseline, 10 min and 1 hr after stent implantation and at sacrifice. Samples were centrifuged at 1800 rpm at 4° C. for 10 minutes. […]
Estrogen quantification data Estrogen quantification was performed by Gas Chromatography/Mass Spectroscopy (GC/MS) as described above. Diffusion of E2 from the stent was determined in tissue in direct contact with the stent (coronary tissues proximal, medial, distal (see FIG. 9)), in close proximity (reference proximal, reference distal, adventitia, peri-coronary muscle, peri-coronary white fat (see FIG. 10)) or at distal sites potentially exposed to E2 released from the stent into the blood (carotid artery, femoral artery, apex, auricle, lung, kidney and liver). To obtain the total amount of E2 in an artery, E2 content measured by GC/MS in the proximal, medial and distal portions of each stented coronary segment were added together. […] The E2 content of the total adventitia dissected from each RCA was also determined.

C[C@]12CC[C@@H]3c4ccc(O)cc4CC[C@H]3[C@@H]1CC[C@@H]2O [estradiol, 17-β-Estradiol]
concentration with strong negative effect on endothelial progenitor cell growth [1]: ≥ 10 µM | amount in the tissue overall [2]: 51 µg | fraction of dose up-taken by the tissue [2]: 0.51% | concentration at which enhancement of foetal bovine aortic endothelial cell growth was lost [3]: ≥ 100 nM | penetration of estradiol through the arterial wall ([4]; detected in adventitia, peri-coronary muscle and white fat tissues): deep penetration | mean concentration of estradiol in coronary tissue ([4]; first 48 hours, 500 μg E2 stent): 12.0 μg/g of tissue | E2 concentration in tissues at distal location from stent ([4]; in vivo): at baseline level
